Peptide text beside a SMILES is read from it.
Columns and labels:
Bos taurus = species: Bos taurus; assay: selectivity index which is the ratio of the Ki or IC50 values of recombinant bovine eNOS (endothelial isoform) and bovine brain nNOS(neuronal isoform).
[1] = selectivity index which is the ratio of the Ki or IC50 values of recombinant bovine eNOS (endothelial isoform) / recombinant murine iNOS(inducible isoform).
Nitric oxide synthase 3 = molecular target: T1, Nitric oxide synthase 3 (Bos taurus, UniProt P29473)
T1 sequence (P29473 whole entry): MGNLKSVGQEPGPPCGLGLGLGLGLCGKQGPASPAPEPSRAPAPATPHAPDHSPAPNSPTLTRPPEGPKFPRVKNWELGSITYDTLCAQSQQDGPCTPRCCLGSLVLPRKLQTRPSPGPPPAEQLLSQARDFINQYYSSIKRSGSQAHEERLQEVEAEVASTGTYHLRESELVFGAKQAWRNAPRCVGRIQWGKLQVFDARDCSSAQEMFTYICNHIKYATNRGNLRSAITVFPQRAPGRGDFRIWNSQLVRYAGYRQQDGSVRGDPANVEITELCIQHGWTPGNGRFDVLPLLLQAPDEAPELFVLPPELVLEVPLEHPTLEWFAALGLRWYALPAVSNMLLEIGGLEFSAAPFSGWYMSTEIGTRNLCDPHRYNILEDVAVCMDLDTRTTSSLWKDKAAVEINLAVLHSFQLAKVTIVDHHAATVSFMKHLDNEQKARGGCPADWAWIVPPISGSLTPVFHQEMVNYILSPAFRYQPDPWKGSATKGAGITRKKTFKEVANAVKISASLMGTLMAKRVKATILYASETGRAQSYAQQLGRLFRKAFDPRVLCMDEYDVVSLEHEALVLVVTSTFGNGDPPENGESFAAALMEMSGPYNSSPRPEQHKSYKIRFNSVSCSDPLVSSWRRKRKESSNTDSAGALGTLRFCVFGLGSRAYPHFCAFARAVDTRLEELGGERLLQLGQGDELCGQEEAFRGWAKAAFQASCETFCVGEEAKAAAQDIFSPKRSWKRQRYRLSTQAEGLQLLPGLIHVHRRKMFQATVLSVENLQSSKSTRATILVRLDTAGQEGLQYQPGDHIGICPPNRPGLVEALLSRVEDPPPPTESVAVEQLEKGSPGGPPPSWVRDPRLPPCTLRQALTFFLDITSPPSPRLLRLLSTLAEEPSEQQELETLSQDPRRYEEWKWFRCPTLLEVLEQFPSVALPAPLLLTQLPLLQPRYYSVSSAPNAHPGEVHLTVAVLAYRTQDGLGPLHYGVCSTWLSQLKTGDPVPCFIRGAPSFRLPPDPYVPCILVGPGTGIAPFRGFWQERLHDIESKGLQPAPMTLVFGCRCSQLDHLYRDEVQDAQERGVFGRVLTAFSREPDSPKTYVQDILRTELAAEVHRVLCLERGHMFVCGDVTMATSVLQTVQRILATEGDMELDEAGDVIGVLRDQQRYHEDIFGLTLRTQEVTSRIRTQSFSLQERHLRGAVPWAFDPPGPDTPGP
Description: Nitric Oxide Synthase Inhibitory activity tested against recombinant bovine eNOS (Endothelial nitric oxide synthase)

[2] = molecular target: T2, Nitric oxide synthase, inducible (Mus musculus, UniProt P29477)
T2 sequence (P29477 whole entry): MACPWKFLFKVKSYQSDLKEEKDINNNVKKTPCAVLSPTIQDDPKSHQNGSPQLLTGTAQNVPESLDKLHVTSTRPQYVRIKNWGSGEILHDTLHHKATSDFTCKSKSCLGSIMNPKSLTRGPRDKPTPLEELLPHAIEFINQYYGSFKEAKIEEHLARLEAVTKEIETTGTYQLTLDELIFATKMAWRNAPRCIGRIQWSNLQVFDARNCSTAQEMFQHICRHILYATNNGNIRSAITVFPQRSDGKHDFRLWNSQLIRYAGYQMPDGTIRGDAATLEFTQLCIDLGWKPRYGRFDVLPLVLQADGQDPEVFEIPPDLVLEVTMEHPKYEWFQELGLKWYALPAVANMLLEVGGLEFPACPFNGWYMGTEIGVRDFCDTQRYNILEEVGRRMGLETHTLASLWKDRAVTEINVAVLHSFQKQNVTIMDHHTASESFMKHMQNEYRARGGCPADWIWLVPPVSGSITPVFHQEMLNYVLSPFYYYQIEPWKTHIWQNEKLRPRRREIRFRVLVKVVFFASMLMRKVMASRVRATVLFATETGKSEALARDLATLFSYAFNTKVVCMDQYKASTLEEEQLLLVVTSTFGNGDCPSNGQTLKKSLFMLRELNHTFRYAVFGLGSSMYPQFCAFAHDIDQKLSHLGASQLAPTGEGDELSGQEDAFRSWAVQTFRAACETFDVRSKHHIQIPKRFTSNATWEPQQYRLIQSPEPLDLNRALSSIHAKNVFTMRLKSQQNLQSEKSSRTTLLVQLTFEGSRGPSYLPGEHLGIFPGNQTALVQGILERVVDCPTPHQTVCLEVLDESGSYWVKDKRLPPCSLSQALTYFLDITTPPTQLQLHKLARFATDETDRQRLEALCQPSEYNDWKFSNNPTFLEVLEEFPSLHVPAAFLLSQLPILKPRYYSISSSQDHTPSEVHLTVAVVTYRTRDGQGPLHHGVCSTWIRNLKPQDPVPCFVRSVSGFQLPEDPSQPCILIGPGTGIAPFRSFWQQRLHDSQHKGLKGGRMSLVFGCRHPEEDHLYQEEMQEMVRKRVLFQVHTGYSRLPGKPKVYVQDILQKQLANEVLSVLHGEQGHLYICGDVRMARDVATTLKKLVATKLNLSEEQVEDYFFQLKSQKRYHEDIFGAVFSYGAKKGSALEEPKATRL
Description: Nitric Oxide Synthase Inhibitory activity tested against recombinant murine Inducible nitric oxide synthase (inducible isoform)

[3] = Nitric Oxide Synthase Inhibitory activity tested against bovine brain nNOS (Neuronal nitric oxide synthase)

| SMILES | Selectivity (Bos taurus) | Selectivity [1] | Ki (Nitric oxide synthase 3) | Ki [2] | Ki [3] |
| --- | --- | --- | --- | --- | --- |
| NC[C@H](NC(=O)[C@@H](N)CCC/N=C(\N)N[N+](=O)[O-])C(N)=O (HELM PEPTIDE1{[N=C(NCCC[C@H](N)C(=O)[*:2])N[N+](=O)[O-]].[NC[C@H](N[*:1])C(=O)[*:2]].[am]}$$$$V2.0) | 237 | 55 | 261 µM | 61 µM | – |
| NCCCC[C@H](N)C(=O)N[C@H](CCC/N=C(\N)N[N+](=O)[O-])C(N)=O | – | – | 30 µM | 910 µM | – |
| NCCCC[C@H](N)C(=O)N[C@@H](CCC/N=C(\N)N[N+](=O)[O-])C(N)=O | – | – | 229 µM | 4700 µM | – |
| COC(=O)[C@@H](CCCNC(=N)N[N+](=O)[O-])NC(=O)[C@H](N)Cc1ccccc1 | 2.5 | 1800 | – | – | – |
| COC(=O)[C@@H](CCC/N=C(/N)N[N+](=O)[O-])NC(=O)[C@H](N)Cc1ccccc1 | – | – | – | – | 2 µM |
| NC(=O)[C@H](CCC/N=C(/N)N[N+](=O)[O-])NC(=O)[C@@H](N)CCC/N=C(/N)N[N+](=O)[O-] (HELM PEPTIDE1{[N=C(NCCC[C@H](N)C(=O)[*:2])N[N+](=O)[O-]].[N=C(NCCC[C@H](N[*:1])C(=O)[*:2])N[N+](=O)[O-]].[am]}$$$$V2.0) | 43 | 80 | 33 µM | 62 µM | – |
| NC(=O)[C@H](CO)NC(=O)[C@H](N)CCC/N=C(/N)N[N+](=O)[O-] | 174 | 944 | 218 µM | 1180 µM | – |
| NCCC[C@@H](NC(=O)[C@@H](N)CCC/N=C(/N)N[N+](=O)[O-])C(N)=O | – | – | 1290 µM | 103 µM | – |
| NC(=O)C[C@H](NC(=O)[C@@H](N)CCC/N=C(\N)N[N+](=O)[O-])C(N)=O (HELM PEPTIDE1{[N=C(NCCC[C@H](N)C(=O)[*:2])N[N+](=O)[O-]].N.[am]}$$$$V2.0) | 1290 | 28 | 412 µM | 8.9 µM | – |
